Source: PubChem BioAssay (NCI)
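Values below derive from 48-hour exposures of cells grown in 96-well plates, with endpoints linearly interpolated between the two concentrations bracketing the appropriate inhibition level. GI50 = concentration required for 50% inhibition of growth. TGI marks complete inhibition of growth.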

Tests used:
Test in all cases: NCI anticancer screen, dose series, 48 h
786-0 renal = test system: 786-0 renal
A498 renal = test system: A498 renal
A549 NSCLC = test system: A549 NSCLC
ACHN renal = test system: ACHN renal
BT-549 breast = test system: BT-549 breast
CAKI-1 renal = test system: CAKI-1 renal
CCRF-CEM leukemia = test system: CCRF-CEM leukemia
COLO 205 colon = test system: COLO 205 colon
DU-145 prostate = test system: DU-145 prostate
EKVX NSCLC = test system: EKVX NSCLC
HCC-2998 colon = test system: HCC-2998 colon
HCT-116 colon = test system: HCT-116 colon
HCT-15 colon = test system: HCT-15 colon
HL-60(TB) leukemia = test system: HL-60(TB) leukemia
HOP-62 NSCLC = test system: HOP-62 NSCLC
HOP-92 NSCLC = test system: HOP-92 NSCLC
HS 578T breast = test system: HS 578T breast
HT29 colon = test system: HT29 colon
IGROV1 ovarian = test system: IGROV1 ovarian
K-562 leukemia = test system: K-562 leukemia
KM12 colon = test system: KM12 colon
LOX IMVI melanoma = test system: LOX IMVI melanoma
M14 melanoma = test system: M14 melanoma
MALME-3M melanoma = test system: MALME-3M melanoma
MCF7 breast = test system: MCF7 breast
MDA-MB-231 breast = test system: MDA-MB-231 breast
MDA-MB-468 breast = test system: MDA-MB-468 breast
MOLT-4 leukemia = test system: MOLT-4 leukemia
NCI-H226 lung = test system: NCI-H226 lung
NCI-H23 lung = test system: NCI-H23 lung
NCI-H460 lung = test system: NCI-H460 lung
NCI-H522 lung = test system: NCI-H522 lung
NCI/ADR-RES ovarian = test system: NCI/ADR-RES ovarian
OVCAR-4 ovarian = test system: OVCAR-4 ovarian
OVCAR-5 ovarian = test system: OVCAR-5 ovarian
OVCAR-8 ovarian = test system: OVCAR-8 ovarian
PC-3 prostate = test system: PC-3 prostate
RPMI-8226 leukemia = test system: RPMI-8226 leukemia
RXF 393 renal = test system: RXF 393 renal
SF-268 CNS = test system: SF-268 CNS
SF-295 CNS = test system: SF-295 CNS
SF-539 CNS = test system: SF-539 CNS
SK-MEL-2 melanoma = test system: SK-MEL-2 melanoma
SK-MEL-28 melanoma = test system: SK-MEL-28 melanoma
SK-MEL-5 melanoma = test system: SK-MEL-5 melanoma
SK-OV-3 ovarian = test system: SK-OV-3 ovarian
SN12C renal = test system: SN12C renal
SNB-19 CNS = test system: SNB-19 CNS
SNB-75 CNS = test system: SNB-75 CNS
SR leukemia = test system: SR leukemia
SW-620 colon = test system: SW-620 colon
T-47D breast = test system: T-47D breast
TK-10 renal = test system: TK-10 renal
U251 CNS = test system: U251 CNS
UACC-257 melanoma = test system: UACC-257 melanoma
UACC-62 melanoma = test system: UACC-62 melanoma
UO-31 renal = test system: UO-31 renal

N#Cc1ccc(/C=N/NC(=O)c2[nH]c3ccc(Br)cc3c2-c2ccccc2)o1
GI50 (786-0 renal): 308 nM
TGI (786-0 renal): 10100 nM
GI50 (A498 renal): 15600 nM
TGI (A498 renal): 42300 nM
GI50 (A549 NSCLC): 383 nM
TGI (A549 NSCLC): 14000 nM
GI50 (ACHN renal): 420 nM
TGI (ACHN renal): 13400 nM
GI50 (BT-549 breast): 243 nM
TGI (BT-549 breast): 3220 nM
GI50 (CAKI-1 renal): 427 nM
TGI (CAKI-1 renal): 16200 nM
GI50 (CCRF-CEM leukemia): 295 nM
TGI (CCRF-CEM leukemia): > 54500 nM
GI50 (COLO 205 colon): 198 nM
TGI (COLO 205 colon): 371 nM
GI50 (DU-145 prostate): 379 nM
TGI (DU-145 prostate): 14800 nM
GI50 (EKVX NSCLC): 496 nM
TGI (EKVX NSCLC): 27300 nM
GI50 (HCC-2998 colon): 278 nM
TGI (HCC-2998 colon): 2620 nM
GI50 (HCT-116 colon): 198 nM
TGI (HCT-116 colon): 11700 nM
GI50 (HCT-15 colon): 333 nM
TGI (HCT-15 colon): 13700 nM
GI50 (HL-60(TB) leukemia): 196 nM
TGI (HL-60(TB) leukemia): 2780 nM
GI50 (HOP-62 NSCLC): 350 nM
TGI (HOP-62 NSCLC): 13500 nM
GI50 (HOP-92 NSCLC): 2120 nM
TGI (HOP-92 NSCLC): 18200 nM
GI50 (HS 578T breast): 313 nM
TGI (HS 578T breast): 20100 nM
GI50 (HT29 colon): 204 nM
TGI (HT29 colon): 2520 nM
GI50 (IGROV1 ovarian): 404 nM
TGI (IGROV1 ovarian): 16600 nM
GI50 (K-562 leukemia): 128 nM
TGI (K-562 leukemia): 15000 nM
GI50 (KM12 colon): 315 nM
TGI (KM12 colon): 11300 nM
GI50 (LOX IMVI melanoma): 124 nM
TGI (LOX IMVI melanoma): 11600 nM
GI50 (M14 melanoma): 324 nM
TGI (M14 melanoma): 22700 nM
GI50 (MALME-3M melanoma): 434 nM
TGI (MALME-3M melanoma): 22200 nM
GI50 (MCF7 breast): 306 nM
TGI (MCF7 breast): 16700 nM
GI50 (MDA-MB-231 breast): 246 nM
TGI (MDA-MB-231 breast): 655 nM
GI50 (MDA-MB-468 breast): 318 nM
TGI (MDA-MB-468 breast): 14100 nM
GI50 (MOLT-4 leukemia): 352 nM
TGI (MOLT-4 leukemia): 32700 nM
GI50 (NCI-H226 lung): 1110 nM
TGI (NCI-H226 lung): 27500 nM
GI50 (NCI-H23 lung): 338 nM
TGI (NCI-H23 lung): 14000 nM
GI50 (NCI-H460 lung): 347 nM
TGI (NCI-H460 lung): 10700 nM
GI50 (NCI-H522 lung): 91.4 nM
TGI (NCI-H522 lung): 340 nM
GI50 (NCI/ADR-RES ovarian): 136 nM
TGI (NCI/ADR-RES ovarian): 408 nM
GI50 (OVCAR-4 ovarian): 1100 nM
TGI (OVCAR-4 ovarian): 25300 nM
GI50 (OVCAR-5 ovarian): 406 nM
TGI (OVCAR-5 ovarian): 21100 nM
GI50 (OVCAR-8 ovarian): 226 nM
TGI (OVCAR-8 ovarian): 624 nM
GI50 (PC-3 prostate): 482 nM
TGI (PC-3 prostate): 19700 nM
GI50 (RPMI-8226 leukemia): 369 nM
TGI (RPMI-8226 leukemia): 27900 nM
GI50 (RXF 393 renal): 486 nM
TGI (RXF 393 renal): 14700 nM
GI50 (SF-268 CNS): 611 nM
TGI (SF-268 CNS): 20300 nM
GI50 (SF-295 CNS): 321 nM
TGI (SF-295 CNS): 13300 nM
GI50 (SF-539 CNS): 212 nM
TGI (SF-539 CNS): 527 nM
GI50 (SK-MEL-2 melanoma): 294 nM
TGI (SK-MEL-2 melanoma): 13500 nM
GI50 (SK-MEL-28 melanoma): 806 nM
TGI (SK-MEL-28 melanoma): 21100 nM
GI50 (SK-MEL-5 melanoma): 272 nM
TGI (SK-MEL-5 melanoma): 770 nM
GI50 (SK-OV-3 ovarian): 513 nM
TGI (SK-OV-3 ovarian): 22500 nM
GI50 (SN12C renal): 389 nM
TGI (SN12C renal): 12600 nM
GI50 (SNB-19 CNS): 394 nM
TGI (SNB-19 CNS): 17000 nM
GI50 (SNB-75 CNS): 369 nM
TGI (SNB-75 CNS): 14600 nM
GI50 (SR leukemia): 152 nM
GI50 (SW-620 colon): 421 nM
TGI (SW-620 colon): 20100 nM
GI50 (T-47D breast): 4660 nM
TGI (T-47D breast): 32900 nM
GI50 (TK-10 renal): 7320 nM
TGI (TK-10 renal): 26900 nM
GI50 (U251 CNS): 330 nM
TGI (U251 CNS): 12300 nM
GI50 (UACC-257 melanoma): 1190 nM
TGI (UACC-257 melanoma): 19700 nM
GI50 (UACC-62 melanoma): 392 nM
TGI (UACC-62 melanoma): 17900 nM
GI50 (UO-31 renal): 454 nM
TGI (UO-31 renal): 15400 nM
